Patent publication US20250289814A1, “COMPOUNDS AS PARP1 INHIBITIORS” (NINGBO NEWBAY TECHNOLOGY DEVELOPMENT CO., LTD., priority 2022, published 2025)
Like-named read-outs stand apart in the source and are kept apart here.

Assays:
[1] = target: Recombinant full length PARP1 (Homo sapiens (Human), UniProt P09874); experiment: FP assay PARP1 (fluorescence anisotropy probe displacement); format: binding; conditions: 20 nM PARP1, 8 nM fluorescent probe, 4 h, room temperature
Procedure: (§1) FP experiments were carried out at room temperature using no-binding black 384-well microplates. Recombinant full length PARP1 and PARP2 proteins produced in house were diluted to 20 nM and 60 nM, respectively, with assay buffer (50 mM Tris pH 8, 0.001% Triton X100, 10 mM MgCl2, and 150 mM NaCl) and incubated for 4 h with an equivalent volume of the 8 nM fluorescent probe diluted with assay buffer. Fluorescence anisotropy of the probe when bound to the proteins was measured in the presence of test compounds or solvent control and the effect on anisotropy determined. Polarization values were read using an Envision plate reader using excitation and emission wavelengths of 590 and 630 nm, respectively. All FP values are expressed as mP units. Inhibition ratio was calculated using readout (mP) following the equation as below: […]
(§2) % inhibition values for different test compound concentrations were calculated and fitted to a four parameter logistic plot in order to determine the IC50 value using XLfit.

[2] = target: Recombinant full length PARP2 (Homo sapiens (Human), UniProt Q9UGN5); experiment: FP assay PARP2 (fluorescence anisotropy probe displacement); format: binding; conditions: 60 nM PARP2, 8 nM fluorescent probe, 4 h, room temperature
Procedure: as §1, §2

DLD1-BRCA2−/− cells = experiment: Cell proliferation assay in DLD1-BRCA2−/− cell lines (CellTiter-Glo, 7 days); format: cell-based
Procedure: BRCA2 (−/−) cells cultured in RPMI 1640+10% FBS were harvested and diluted to a density of 1×10^4 cells/mL and 2×10^4 cells/mL, respectively. Cells (40 μL/well) were seeded into 384-well cell culture plates. Plates were covered and incubated at 37° C., 5% CO2 overnight prior to the addition of test compounds or vehicle. The plates were then incubated at 37° C., 5% CO2 for 7 days. On day 8, the plates were removed from incubator and equilibrated at room temperature for 15 minutes. CellTiter-Glo (40 μL, at 1:1 to culture medium) is added into each well and the plates were placed at room temperature for 30 min. Luminescence was measured using an Envision plate reader. The resultant data were analysed as follows; where LC is culture medium without cells:
% inhibition values for different test compound concentrations were calculated and fitted to a four parameter logistic plot in order to determine the IC50 value using XLfit

[3] = Caco2 (A-B/B-A) permeability; format: in vitro ADME; conditions: human; for efflux ratio at 120 min, 5 μM: Caco-2, pH 7.4, PappB-A/PappA-B, read-out: Caco2 efflux ratio (ER); for Papp A→B at 120 min, 5 μM: Caco-2, pH 7.4, apical-to-basolateral, read-out: Caco2 A-B apparent permeability (Papp); for Papp A→B at 120 min, 5 μM / Papp B→A at 120 min, 5 μM: HBSS pH 7.4, 120 min, 37° C.; for Papp B→A at 120 min, 5 μM: Caco-2, pH 7.4, basolateral-to-apical, read-out: Caco2 B-A apparent permeability (Papp)
Procedure: The apical-to-basolateral (A-B) and basolateral-to-apical (B-A) transport of 5 μM test compounds in HBSS (10 mM HEPES, pH 7.4) was measured across Caco-2 cell monolayers (cells sourced from American Type Culture Collection, Manassas, Virgina). Duplicate incubations were performed at approximately 37° C. for 120 min, with functionality of the test system confirmed using 5 μM propranolol and digoxin as control compounds. Aliquots (50 μL) from both apical and basolateral wells were transferred into two fresh 96-well plates and quenched with acetonitrile solution containing analytical internal standards. Samples were vortexed mixed, centrifuged and a 100 μL aliquot of the resulting supernatant mixed with an equal volume of ultra-pure water prior to analysis by UPLC-MS/MS. The concentrations of test compound and control compounds in the incubation medium of donor and receiver compartments at the beginning and the end of the incubation period were used to calculate the apparent permeability (Papp) from A-B and B-A directions. The efflux ratio (ER) was expressed as PappB-A/PappA-B. The integrity of the cell monolayers after 2 hours incubation was confirmed using the marker reagent Lucifer yellow.

Chain of Recombinant full length PARP1 (P09874 whole entry): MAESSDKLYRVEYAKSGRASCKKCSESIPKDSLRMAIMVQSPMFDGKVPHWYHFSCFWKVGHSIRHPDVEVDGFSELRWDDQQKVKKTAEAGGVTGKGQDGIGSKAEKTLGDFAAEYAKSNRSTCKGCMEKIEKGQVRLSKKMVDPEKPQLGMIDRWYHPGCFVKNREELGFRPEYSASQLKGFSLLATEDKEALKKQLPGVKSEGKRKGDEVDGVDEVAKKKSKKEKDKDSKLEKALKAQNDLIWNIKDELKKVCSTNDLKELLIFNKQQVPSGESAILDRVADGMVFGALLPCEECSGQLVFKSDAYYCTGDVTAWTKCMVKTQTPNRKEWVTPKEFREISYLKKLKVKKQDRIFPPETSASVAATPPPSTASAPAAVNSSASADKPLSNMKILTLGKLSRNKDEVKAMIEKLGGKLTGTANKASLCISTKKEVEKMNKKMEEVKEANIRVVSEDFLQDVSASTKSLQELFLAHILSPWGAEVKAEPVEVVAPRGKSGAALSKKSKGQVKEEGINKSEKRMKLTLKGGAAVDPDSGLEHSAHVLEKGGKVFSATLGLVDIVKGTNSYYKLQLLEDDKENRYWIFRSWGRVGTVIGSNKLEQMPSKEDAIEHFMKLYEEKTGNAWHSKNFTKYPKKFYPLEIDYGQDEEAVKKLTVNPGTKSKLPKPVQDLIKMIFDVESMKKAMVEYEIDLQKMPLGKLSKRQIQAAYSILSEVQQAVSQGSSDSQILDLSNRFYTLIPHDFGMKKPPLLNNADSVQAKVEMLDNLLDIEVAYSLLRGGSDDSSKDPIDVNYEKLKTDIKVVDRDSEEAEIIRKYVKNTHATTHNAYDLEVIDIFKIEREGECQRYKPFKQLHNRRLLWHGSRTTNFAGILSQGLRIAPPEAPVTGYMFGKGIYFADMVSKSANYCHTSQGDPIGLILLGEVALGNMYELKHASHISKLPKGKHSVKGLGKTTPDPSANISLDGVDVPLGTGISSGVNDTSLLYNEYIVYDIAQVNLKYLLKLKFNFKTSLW
Chain of Recombinant full length PARP2 (Q9UGN5 whole entry): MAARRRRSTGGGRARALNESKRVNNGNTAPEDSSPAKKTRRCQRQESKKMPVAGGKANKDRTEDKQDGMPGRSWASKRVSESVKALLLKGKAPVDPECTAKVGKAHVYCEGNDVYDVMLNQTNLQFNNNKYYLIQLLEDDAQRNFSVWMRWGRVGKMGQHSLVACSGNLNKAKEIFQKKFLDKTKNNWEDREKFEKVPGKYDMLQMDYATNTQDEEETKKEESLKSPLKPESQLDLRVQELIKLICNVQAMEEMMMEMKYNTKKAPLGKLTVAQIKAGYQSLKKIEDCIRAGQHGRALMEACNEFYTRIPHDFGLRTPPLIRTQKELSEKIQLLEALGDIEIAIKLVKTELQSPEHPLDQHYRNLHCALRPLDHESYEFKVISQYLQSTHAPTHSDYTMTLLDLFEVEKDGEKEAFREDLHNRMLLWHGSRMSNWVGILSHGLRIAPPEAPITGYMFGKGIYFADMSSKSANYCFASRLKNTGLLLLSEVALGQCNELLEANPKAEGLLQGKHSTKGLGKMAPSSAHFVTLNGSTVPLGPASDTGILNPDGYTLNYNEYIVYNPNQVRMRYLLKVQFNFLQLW

SMILES	IC50 [1] [nM]	IC50 [2] [nM]	IC50 (DLD1-BRCA2−/− cells; Homo sapiens, DLD-1, 168 h) [nM]	efflux ratio at 120 min, 5 μM [3]	Papp A→B at 120 min, 5 μM [3] [×10⁻⁶ cm/s]	Papp B→A at 120 min, 5 μM [3] [×10⁻⁶ cm/s]	IC50 (DLD1-BRCA2−/− cells) [nM]
CCc1nc2ccc([C@H](C)N3CC(Oc4ccc(C(=O)NC)nc4F)C3)cc2[nH]c1=O (single isomer, unassigned) [Compound 56, (enantiomer 1 or 2)-5-((1-(1-(2-ethyl-3-oxo-3,4-dihydroquinoxalin-6-yl)ethyl)azetidin-3-yl)oxy)-6-fluoro-N-methylpicolinamide]	11		10.9	3.01	8.54	25.8	
CNC(=O)c1ccc(O[C@@H]2CCN(Cc3cnc4cc(C5CC5)c(=O)[nH]c4c3)C2)cn1 (single isomer, unassigned) [Compound 60, (enantiomer 1 or 2)-5-((1-((7-cyclopropyl-6-oxo-5,6-dihydro-1,5-naphthyridin-3-yl)methyl)pyrrolidin-3-yl)oxy)-N-methylpicolinamide]	64.3	> 10000					> 1000
CNC(=O)c1ccc(O[C@@H]2CCN(Cc3cnc4cc(C5CC5)c(=O)[nH]c4c3)C2)cn1 (single isomer, unassigned) [Compound 61, (enantiomer 1 or 2)-5-((1-((7-cyclopropyl-6-oxo-5,6-dihydro-1,5-naphthyridin-3-yl)methyl)pyrrolidin-3-yl)oxy)-N-methylpicolinamide]	6.62	> 10000					40.7
CCc1cc2ncc(CN3CCC(Oc4ccc(C(=O)NC)nc4)CC3)cc2[nH]c1=O [Compound 15, 5-((1-((7-ethyl-6-oxo-5,6-dihydro-1,5-naphthyridin-3-yl)methyl)piperidin-4-yl)oxy)-N-methylpicolinamide]	18	> 10000	195				
CCc1cc2ncc(CN3C[C@H](Oc4ccc(C(=O)NC)nc4)[C@@H](F)C3)cc2[nH]c1=O [Compound 24, 5-(((3S,4S)-1-((7-ethyl-6-oxo-5,6-dihydro-1,5-naphthyridin-3-yl)methyl)-4-fluoropyrrolidin-3-yl)oxy)-N-methylpicolinamide]	7.3	> 10000	542				
CCc1nc2ccc(C(C)N3CC(Oc4ccc(C(=O)NC)nc4F)C3)c(F)c2[nH]c1=O (stereo not drawn) [Compound 55, 5-((1-(1-(2-ethyl-5-fluoro-3-oxo-3,4-dihydroquinoxalin-6-yl)ethyl)azetidin-3-yl)oxy)-6-fluoro-N-methylpicolinamide]	28.1		554	1.5	9.92	14.8	
CCc1cc2ncc(CN3CC[C@@H](N(C)c4ccc(C(=O)NC)nc4)C3)cc2[nH]c1=O (single isomer, unassigned; enantiomer 2) [Compound 17, (enantiomer 2)-5-((1-((7-ethyl-6-oxo-5,6-dihydro-1,5-naphthyridin-3-yl)methyl)pyrrolidin-3-yl)(methyl)amino)-N-methylpicolinamide]				9.14	3.64	33.3	195
CCc1cc2ncc(CN3CC[C@@H](Oc4ccc(C(=O)NC)nc4F)C3)cc2[nH]c1=O [Compound 29, (R)-5-((1-((7-ethyl-6-oxo-5,6-dihydro-1,5-naphthyridin-3-yl)methyl)pyrrolidin-3-yl)oxy)-6-fluoro-N-methylpicolinamide]	9.6	> 10000	7.9				
CCc1cc2ncc(CN3CC4CC3CN4c3ccc(C(=O)NC)nc3)cc2[nH]c1=O (stereo not drawn) [Compound 37, 5-(5-((7-ethyl-6-oxo-5,6-dihydro-1,5-naphthyridin-3-yl)methyl)-2,5-diazabicyclo [2.2.1]heptan-2-yl)-N-methylpicolinamide]			> 1000	18.8	1.61	30.2	
CCc1cc2ncc(CN3CCC(Cc4ccc(C(=O)NC)nc4)C3)cc2[nH]c1=O (stereo not drawn) [Compound 7, 5-((1-((7-ethyl-6-oxo-5,6-dihydro-1,5-naphthyridin-3-yl)methyl)pyrrolidin-3-yl)methyl)-N-methylpicolinamide]	7.8	7040	207				
CCc1cc2ncc(CN3CC[C@H](Oc4ccc(C(=O)NC)nc4)C3)cc2[nH]c1=O [Compound 58, (S)-5-((1-((7-ethyl-6-oxo-5,6-dihydro-1,5-naphthyridin-3-yl)methyl)pyrrolidin-3-yl)oxy)-N-methylpicolinamide]	44.7	> 10000	> 1000				
CCc1cc2ncc(CN3CC4CN(c5ccc(C(=O)NC)nc5)CC4C3)cc2[nH]c1=O (stereo not drawn) [Compound 40, 5-(5-((7-ethyl-6-oxo-5,6-dihydro-1,5-naphthyridin-3-yl)methyl)hexahydropyrrolo [3,4-c]pyrrol-2(1H)-yl)-N-methylpicolinamide]			181	8.32	4.29	35.7	

More lines, now with the values ahead:

IC50 [1] [nM]	IC50 [2] [nM]	IC50 (DLD1-BRCA2−/− cells; Homo sapiens, DLD-1, 168 h) [nM]	efflux ratio at 120 min, 5 μM [3]	Papp A→B at 120 min, 5 μM [3] [×10⁻⁶ cm/s]	Papp B→A at 120 min, 5 μM [3] [×10⁻⁶ cm/s]	IC50 (DLD1-BRCA2−/− cells) [nM]	SMILES
3.5	4810	17.2					CCc1cc2ncc(C(C)N3CC(Oc4ccc(C(=O)NC)nc4F)C3)cc2[nH]c1=O (stereo not drawn) [Compound 21, 5-((1-(1-(7-ethyl-6-oxo-5,6-dihydro-1,5-naphthyridin-3-yl)ethyl)azetidin-3-yl)oxy)-6-fluoro-N-methylpicolinamide]
4.4	> 10000	256					CCc1cc2ncc(CN3CC[C@@H](Oc4ccc(C(=O)NC)nc4C)C3)cc2[nH]c1=O [Compound 30, (R)-5-((1-((7-ethyl-6-oxo-5,6-dihydro-1,5-naphthyridin-3-yl)methyl)pyrrolidin-3-yl)oxy)-N,6-dimethylpicolinamide]
4.3	> 10000	221					CCc1cc2ncc(CN3CC(N(C)c4ccc(C(=O)NC)nc4)C3)cc2[nH]c1=O [Compound 3, 5-((1-((7-ethyl-6-oxo-5,6-dihydro-1,5-naphthyridin-3-yl)methyl)azetidin-3-yl)(methyl)amino)-N-methylpicolinamide]
6.1	> 10000	> 1000					CCc1cc2ncc(C(C)N3CC(Oc4ccc(C(=O)NC)nc4C)C3)cc2[nH]c1=O (stereo not drawn) [Compound 19, 5-((1-(1-(7-ethyl-6-oxo-5,6-dihydro-1,5-naphthyridin-3-yl)ethyl)azetidin-3-yl)oxy)-N,6-dimethylpicolinamide]
5.9	3760	12.2					CCc1cc2ncc(C(C)N3CC(Oc4ccc(C(=O)NC)nc4)C3)cc2[nH]c1=O (racemic) [Compound 43, 5-((1-(1-(7-ethyl-6-oxo-5,6-dihydro-1,5-naphthyridin-3-yl)ethyl)azetidin-3-yl)oxy)-N-methylpicolinamide]
4.4	> 10000	> 1000					CCc1cc2ncc(CN3CC(Oc4ccc(C(=O)NC)nc4C)C3)cc2[nH]c1=O [Compound 44, 5-((1-((7-ethyl-6-oxo-5,6-dihydro-1,5-naphthyridin-3-yl)methyl)azetidin-3-yl)oxy)-N,6-dimethylpicolinamide]
2.12		38.5					CCc1nc2ccc(C(C)N3CC(Oc4ccc(-n5ccnn5)nc4)C3)cc2[nH]c1=O (stereo not drawn) [Compound 54, 7-(1-(3-((6-(1H-1,2,3-triazol-1-yl)pyridin-3-yl)oxy)azetidin-1-yl)ethyl)-3-ethylquinoxalin-2(1H)-one]
6.6	> 10000	48.6					CNC(=O)c1ccc(OC2CCN(Cc3cnc4cc(C5CC5)c(=O)[nH]c4c3)C2)cn1 (stereo not drawn) [Compound 14, 5-((1-((7-cyclopropyl-6-oxo-5,6-dihydro-1,5-naphthyridin-3-yl)methyl)pyrrolidin-3-yl)oxy)-N-methylpicolinamide]
